Patent US20260062443A1 (ALEXION PHARMACEUTICALS, INC., priority 2022, published 2026)

What follows are compounds tested against T1, Human complement C1s enzyme (Homo sapiens, UniProt P09871) (assay: Human C1s enzyme assay). Conditions: human complement C1s enzyme 1.16 nM, substrate Z-L-Lys-SBzl 100 μM, 5 min preincubation; read-out: IC50 (Stars), C1s Inhibiting Activity.
T1 sequence (P09871 438-688 limits assumed): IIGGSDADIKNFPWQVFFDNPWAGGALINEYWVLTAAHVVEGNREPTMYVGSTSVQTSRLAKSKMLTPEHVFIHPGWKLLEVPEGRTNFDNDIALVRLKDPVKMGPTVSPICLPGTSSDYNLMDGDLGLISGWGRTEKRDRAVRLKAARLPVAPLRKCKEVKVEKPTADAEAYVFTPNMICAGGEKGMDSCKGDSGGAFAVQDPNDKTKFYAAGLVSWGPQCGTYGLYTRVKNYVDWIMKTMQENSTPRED
T1 sequence (P09871 16-437 partner limits assumed): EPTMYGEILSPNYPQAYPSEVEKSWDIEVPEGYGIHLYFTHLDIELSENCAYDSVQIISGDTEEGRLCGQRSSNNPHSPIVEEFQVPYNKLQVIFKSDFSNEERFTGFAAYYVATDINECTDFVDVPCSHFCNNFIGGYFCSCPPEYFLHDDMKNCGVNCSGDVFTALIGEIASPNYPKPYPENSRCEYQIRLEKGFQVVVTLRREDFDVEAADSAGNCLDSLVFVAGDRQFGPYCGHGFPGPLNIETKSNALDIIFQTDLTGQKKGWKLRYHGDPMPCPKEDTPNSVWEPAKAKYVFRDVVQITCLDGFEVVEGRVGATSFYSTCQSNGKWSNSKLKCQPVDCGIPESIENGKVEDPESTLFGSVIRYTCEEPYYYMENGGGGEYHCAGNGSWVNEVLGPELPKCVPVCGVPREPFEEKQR
Type: biochemical
Method in brief: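 Serum-purified human C1s (1.16 nM final) preincubated 5 min at room temperature with compound in 50 mM Tris, 1 M NaCl, pH 7.5. Z-L-Lys-SBzl and DTNB added at 100 μM each; A405 followed every 30 s for 30 min, and IC50 obtained by nonlinear regression of reaction rates.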

SMILES	IC50
C[C@@H](NC(=O)[C@@H]1C[C@@H](OC(F)F)CN1C(=O)CNC(=O)c1cccc2c1-c1ccccc1C2(F)F)c1cc2cnccc2[nH]1 [Compound 134, (2S,4R)-N-((R)-1-(1H-pyrrolo[3,2-c]pyridin-2-yl)ethyl)-1-((9,9-difluoro-9H-fluorene-4-carbonyl)glycyl)-4-(difluoromethoxy)pyrrolidine-2-carboxamide]	> 1000 nM
O=C(NCc1cc2cnccc2[nH]1)[C@@H]1C[C@@H](OC(F)F)CN1C(=O)CN1Cc2ncc(-c3ccc(F)cc3F)cc2C1=O [Compound 135, (2S,4R)-N-((1H-pyrrolo[3,2-c]pyridin-2-yl)methyl)-4-(difluoromethoxy)-1-(2-(3-(2,4-difluorophenyl)-5-oxo-5,7-dihydro-6H-pyrrolo[3,4-b]pyridin-6-yl)acetyl)pyrrolidine-2-carboxamide]	> 1000 nM
C[C@@]12C[C@@H]1N(C(=O)CNC(=O)c1ccc(Oc3ccccc3)cn1)[C@H](C(=O)NCc1cc3cnccc3[nH]1)C2 [Compound 136, (1S,3S,5S)-N-((1H-pyrrolo[3,2-c]pyridin-2-yl)methyl)-5-methyl-2-((5-phenoxypicolinoyl)glycyl)-2-azabicyclo[3.1.0]hexane-3-carboxamide]	100 to 1000 nM
O=C(NCc1cc2cnccc2[nH]1)[C@@H]1C[C@@H](OC(F)F)CN1C(=O)CN1Cc2ncc(-c3ccc(F)cc3)cc2C1=O [Compound 138, (2S,4R)-N-((1H-pyrrolo[3,2-c]pyridin-2-yl)methyl)-4-(difluoromethoxy)-1-(2-(3-(4-fluorophenyl)-5-oxo-5,7-dihydro-6H-pyrrolo[3,4-b]pyridin-6-yl)acetyl)pyrrolidine-2-carboxamide]	> 1000 nM
C[C@@]12C[C@@H]1N(C(=O)CNC(=O)c1ccc(Oc3ccc(C(F)(F)F)cc3)cc1)[C@H](C(=O)NCc1cc3cnccc3[nH]1)C2 [Compound 139, (1S,3S,5S)-N-((1H-pyrrolo[3,2-c]pyridin-2-yl)methyl)-5-methyl-2-((4-(4-(trifluoromethyl)phenoxy)benzoyl)glycyl)-2-azabicyclo[3.1.0]hexane-3-carboxamide]	100 to 1000 nM
O=C(NCC(=O)N1CC2(C[C@H]1C(=O)NCc1cc3cnccc3[nH]1)OCCO2)c1cccc(Oc2ccccc2)c1 [Compound 144, (S)-N-((1H-pyrrolo[3,2-c]pyridin-2-yl)methyl)-7-((3-phenoxybenzoyl)glycyl)-1,4-dioxa-7-azaspiro[4.4]nonane-8-carboxamide]	< 100 nM
C[C@@H](NC(=O)[C@@H]1C[C@@H](C2OCCCO2)CN1C(=O)CNC(=O)c1ccc2c(c1)Oc1ccccc1S2)c1cc2cnccc2[nH]1 [Compound 145, (2S,4R)-N-((R)-1-(1H-pyrrolo[3,2-c]pyridin-2-yl)ethyl)-4-(1,3-dioxan-2-yl)-1-((phenoxathiine-3-carbonyl)glycyl)pyrrolidine-2-carboxamide]	< 100 nM
C[C@@H](NC(=O)[C@@H]1C[C@H](C2OCCCO2)CN1C(=O)CNC(=O)c1ccc2c(c1)Oc1ccccc1S2)c1cc2cnccc2[nH]1 [Compound 146, (2S,4S)-N-((R)-1-(1H-pyrrolo[3,2-c]pyridin-2-yl)ethyl)-4-(1,3-dioxan-2-yl)-1-((phenoxathiine-3-carbonyl)glycyl)pyrrolidine-2-carboxamide]	< 100 nM
C[C@@H](NC(=O)[C@@H]1C[C@]2(C)C[C@@H]2N1C(=O)CNC(=O)c1ccc(-c2ccc(F)cc2F)cc1)c1cc2cnccc2[nH]1 [Compound 147, (1S,3S,5S)-N-((R)-1-(1H-pyrrolo[3,2-c]pyridin-2-yl)ethyl)-2-((2′,4′-difluoro-[1,1′-biphenyl]-4-carbonyl)glycyl)-5-methyl-2-azabicyclo[3.1.0]hexane-3-carboxamide]	100 to 1000 nM
C[C@@H](NC(=O)[C@@H]1C[C@](F)(CO)CN1C(=O)CNC(=O)c1ccc2c(c1)Oc1ccccc1S2)c1cc2cnccc2[nH]1 [Compound 148, (2S,4R)-N-((R)-1-(1H-pyrrolo[3,2-c]pyridin-2-yl)ethyl)-4-fluoro-4-(hydroxymethyl)-1-((phenoxathiine-3-carbonyl)glycyl)pyrrolidine-2-carboxamide]	< 100 nM

The remaining lines, values ahead:

IC50	SMILES
< 100 nM	C[C@@]12C[C@@H]1N(C(=O)CN1Cc3cc(-c4ccc(F)cc4F)ccc3C1=O)[C@H](C(=O)NCc1cc3cnccc3[nH]1)C2 [Compound 129, (1S,3S,5S)-N-((1H-pyrrolo[3,2-c]pyridin-2-yl)methyl)-2-(2-(5-(2,4-difluorophenyl)-1-oxoisoindolin-2-yl)acetyl)-5-methyl-2-azabicyclo[3.1.0]hexane-3-carboxamide]
< 100 nM	C[C@@H](NC(=O)[C@@H]1C[C@]2(C)C[C@@H]2N1C(=O)CNC(=O)c1ccc2c(c1)Oc1ccccc1S2)c1cc2cnccc2[nH]1 [Compound 130, (1S,3S,5S)-N-((R)-1-(1H-pyrrolo[3,2-c]pyridin-2-yl)ethyl)-5-methyl-2-((phenoxathiine-3-carbonyl)glycyl)-2-azabicyclo[3.1.0]hexane-3-carboxamide]
< 100 nM	C[C@@H](NC(=O)[C@@H]1CC2(CCCC2)CN1C(=O)CNC(=O)c1ccc2c(c1)Oc1ccccc1S2)c1cc2cnccc2[nH]1 [Compound 131, (S)-N-((R)-1-(1H-pyrrolo[3,2-c]pyridin-2-yl)ethyl)-2-((phenoxathiine-3-carbonyl)glycyl)-2-azaspiro[4.4]nonane-3-carboxamide]
< 100 nM	COC[C@H]1C[C@@H](C(=O)N[C@H](C)c2cc3cnccc3[nH]2)N(C(=O)CNC(=O)c2ccc3c(c2)Oc2ccccc2S3)C1 [Compound 132, (2S,4S)-N-((R)-1-(1H-pyrrolo[3,2-c]pyridin-2-yl)ethyl)-4-(methoxymethyl)-1-((phenoxathiine-3-carbonyl)glycyl)pyrrolidine-2-carboxamide]
< 100 nM	CC(C)S(=O)(=O)[C@@H]1C[C@@H](C(=O)N[C@H](C)c2cc3cnccc3[nH]2)N(C(=O)CNC(=O)c2ccc3c(c2)Oc2ccccc2S3)C1 [Compound 133, (2S,4R)-N-((R)-1-(1H-pyrrolo[3,2-c]pyridin-2-yl)ethyl)-4-(isopropylsulfonyl)-1-((phenoxathiine-3-carbonyl)glycyl)pyrrolidine-2-carboxamide]
< 100 nM	O=C(NCC(=O)N1C[C@H](OC(F)F)C[C@H]1C(=O)NCc1cc2cnccc2[nH]1)c1ccc(Oc2ccccc2)cn1 [Compound 137, N-(2-((2S,4R)-2-(((1H-pyrrolo[3,2-c]pyridin-2-yl)methyl)carbamoyl)-4-(difluoromethoxy)pyrrolidin-1-yl)-2-oxoethyl)-5-phenoxypicolinamide]
< 100 nM	O=C(NCC(=O)N1C[C@H](OC(F)F)C[C@H]1C(=O)NCc1cc2cnccc2s1)c1ccc2c(c1)Oc1ccccc1S2 [Compound 141, (2S,4R)-4-(difluoromethoxy)-1-((phenoxathiine-3-carbonyl)glycyl)-N-(thieno[3,2-c]pyridin-2-ylmethyl)pyrrolidine-2-carboxamide]
< 100 nM	Cc1cc(C(=O)NCC(=O)N2C[C@H](OC(F)F)C[C@H]2C(=O)N[C@H](C)c2cc3cnccc3[nH]2)ccc1Oc1ccc(F)cc1 [Compound 143, (2S,4R)-N-((R)-1-(1H-pyrrolo[3,2-c]pyridin-2-yl)ethyl)-4-(difluoromethoxy)-1-((4-(4-fluorophenoxy)-3-methylbenzoyl)glycyl)pyrrolidine-2-carboxamide]
